Measured values taken from patent publication US20240041830A1, “CIRCULATING BIOMARKERS OF RESPONSE TO PD-1/PD-L1 BLOCKADE AND GSK-3 INHIBITION” (Brown University, priority 2022, published 2024).

Assays:
Assay type in all cases: cell-based, human
[1] = system: NK-92; assay: Luminex cytokine profiling of cell culture supernatant
Experimental: (§1) Collection of cell culture supernatants used in cytokine measurements. Cells were plated at 3.5×10^4 cells in a 48-well plate (Thermo Fisher Scientific, Waltham, MA, USA) in complete medium and incubated at 37° C. with 5% CO2. At twenty-four hours after plating, almost all the tumor cells were adherent to the bottom of the flask and the complete medium was replaced with the drug-containing medium. Subsequently, the culture supernatants were collected after forty-eight hours of incubation and were frozen at −80° C. until the measurement of cytokines was performed. On the day of analysis, samples were thawed and centrifuged to remove cellular debris.
(§2) Human cytokine profiling. Human cell line culture supernatants were analyzed using an R&D systems Human Premixed Multi-Analyte Kit (R&D Systems, Inc., Minneapolis, MN, USA) and a Luminex 200 (RRID: SCR_018025) Instrument (LX200-XPON-RUO, Luminex Corporation, Austin, TX, USA) according to the manufacturer's instructions. Sample levels of TNF-α, 4-1BB/TNFRSF9/CD137, IL-8/CXCL8, Ferritin, IFN-β, IL-10, CCL2/JE/MCP-1, VEGF, CXCL13/BLC/BCA-1, IFN-γ, CCL20/MIP-3 α, CCL3/MIP-1 α, CCL22/MDC, CCL4/MIP-1 β, Fas Ligand/TNFSF6, IL-17/1L-17A, IL-2, BAFF/BLyS/TNFSF13B, GM-CSF, CXCLS/ENA-78, TRANCE/TNFSF11/RANK L, CXCL9/MIG, G-CSF, IFN-γ R1/CD119, VEGFR3/Flt-4, C-Reactive Protein/CRP, CXCL11/I-TAC, IL-21, CXCL14/BRAK, IL-6, Fas/TNFRSF6/CD95, TRAIL R3/TNFRSF10C, IL-4, CCL5/RANTES, PD-L1/137-H1, CCL7/MCP-3/MARC, Chitinase 3-like 1, CXCL10/IP-10/CRG-2, IL-1 μ/IL-1F2, IL-7, Prolactin, CCL8/MCP-2, TRAIL R2/TNFRSF10B, M-CSF, IL-15, Granzyme B, IFN-α, TREM-1, IL-12/1L-23 p40, TRAIL/TNFSF10, CCL11/Eotaxin, and 1L-18/1L-1F4. Quantitative analysis with 6 standards and a minimum of 50 counts per bead region was used with the Luminex to generate analyte values reported as picograms/milliliter (pg/mL). Sample concentrations less than the lower limit of detection for each particular analyte were recoded as the lower limit value divided by 10. Sample concentrations above the upper limit of detection for a particular analyte were recoded as the upper limit of detection.
(§3) Saos-2 osteosarcoma and 93T449 liposarcoma cell lines were pretreated at IC50 with elraglusib. The cells were harvested for Western blot analysis after 48 hours of treatment. Both cancer cell lines as well as TALL-104 T-cells and NK-92 NK cells were treated with 0.5 μM elraglusib for twenty-four hours and harvested for Luminex cytokine profiling.
(§4) Because the previously observed non-canonical NF-κB pathway activation enhances the expression of immune cell chemotactic chemokines and cytokines, the inventors determine how elraglusib treatment impacts the immune cell secretome. TALL-104 and NK-92 cells were treated with 1 μM elraglusib for forty-eight hours before cell culture supernatant was collected for cytokine profile analysis.

[2] = system: TALL-104; assay: as above
Experimental: as §1, §2, §3, §4

[3] = system: HT-29; assay: Western blot analysis
Experimental: (§5) Pyroptosis assay. Recombinant Human TNF-α (Cat #300-01A, PeproTech, Rocky Hill, NJ, USA) and Recombinant Human IFN-γ (Cat #300-02, PeproTech, Rocky Hill, NJ, USA) were purchased for use in western blot analysis while rhTRAIL was generated in-house. See Kim et al., J. Biol. Chem., 279, 40044-40052 (2004).
(§6) Western blot analysis. Cells were plated in a 6-well plate and incubated overnight before the spent media was replaced with drugged media. Drug treatment lasted for indicated durations. Protein was extracted using radioimmunoprecipitation (RIPA) assay buffer (Cat #R0278, Sigma-Aldrich, St. Louis, MO, USA) containing cOmplete™, Mini, EDTA-free Protease Inhibitor Cocktail (Cat #4693159001, Roche, Basel, Switzerland) from sub-confluent cells. Denaturing sample buffer was added, samples were boiled at 95° C. for ten minutes, and an equal amount of protein lysate was electrophoresed through NuPAGE™ 4 to 12%, bis-Tris, 1.5 mm, Mini Protein Gels (Invitrogen, Waltham, MA, USA) then transferred to PVDF membranes. The PVDF membrane was blocked with 5% non-fat milk (Sigma-Aldrich, St. Louis, MO, USA) in 1× TTBS. Primary antibodies were incubated with the transferred PVDF membrane in blocking buffer at 4° C. overnight. Secondary antibodies included Goat anti-Rabbit IgG (H+L) Secondary Antibody, HRP (Cat #31460, Invitrogen, Waltham, MA, USA), and Goat anti-Mouse IgG (H+L) Secondary Antibody, HRP (Cat #31430, Invitrogen, Waltham, MA, USA). The signal was detected using Pierce™ ECL Western Blotting Substrate (Cat #32106, Thermo Scientific, Waltham, MA, USA) and a Syngene Imaging System (RRID: SCR_015770).
(§7) Elraglusib uprequlates tumor cell PD-L1 and proapoptotic pathway expression as well as downregulates immunosuppressive/angiogenic protein expression and pro-survival pathways. The inventors performed Western blot analyses on colorectal cancer cells (HCT-116, HT-29) treated with elraglusib over a 72-hour time course. […] The inventors observed increases in PD-L1 expression as the treatment duration increased. To further elucidate the elraglusib-mediated effects on tumor cell survival, the inventors probed for survival factors Bcl-2 and Survivin and noted decreases in protein expression in both cell lines, especially at the later timepoints (forty-eight hours, seventy-two hours). […] HCT116 cells are heterozygous for β-catenin, harboring one wild-type allele and one mutant allele with inactivation of one of the residues phosphorylated by GSK-3β that is frequently mutated in tumors. Kaler, Augenlicht, & Klampfer, PLoS ONE, 7, e45462 (2012). HT-29, KM12C, and SW480 cells harbor APC mutations. Rowan et al., Proc. Natl. Acad. Sci. USA, 97, 3352 (2000).

[4] = system: HCT-116; assay: Western blot analysis
Experimental: as §5, §6, §7

[5] = as treatment duration increased
[6] = especially forty-eight, seventy-two hours
[7] = low dose, until the 48-hour timepoint

For Cn1cc(C2=C(c3coc4ccc(F)cc34)C(=O)NC2=O)c2cc3c(cc21)OCO3 [elraglusib], the IL-8 chemokine ([1]; 0.5 μM, twenty-four hours) was “increase”, the “soluble TRAIL (TRAIL/TNFSF10)” value ([1]; 0.5 μM, twenty-four hours) was “increase” and the IFN-γ concentration ([1]; 1 μM, forty-eight hours) was “increases”. For the same molecule, the TRAIL concentration ([1]; 1 μM, forty-eight hours) was “increases”, the “secreted granzyme B concentration” value ([1]; 1 μM, forty-eight hours) was “decreases” and the “IFN-γ in cell culture supernatants” value ([1]; twenty-four hours, effect smaller than in TALL-104) was “significant increase”. The CXCL11 ([2]; 0.5 μM, twenty-four hours) was “increase”, the IL-18 ([2]; 0.5 μM, twenty-four hours) was “increased level” and the IFN-γ concentration ([2]; 1 μM, forty-eight hours) was “increases”. For the same molecule, the TRAIL concentration ([2]; 1 μM, forty-eight hours) was “increases”, the “granzyme B concentration” value ([2]; 1 μM, forty-eight hours) was “increases” and the “IFN-γ in cell culture supernatants” value ([2]; twenty-four hours) was “significant increase”. For the same molecule, the “NF-κB p65 expression” value ([3]; 72-hour time course) was “decreased expression”, the PD-L1 expression [3, 5] was “increases” and the Bcl-2 protein expression [3, 6] was “decreases”. For the same molecule, the Survivin protein expression [3, 6] was “decreases”, the “cleaved PARP (cPARP)” value [3, 7] was “little to no cleaved PARP” and the “NF-κB p65 expression” value ([4]; 72-hour time course) was “decreased expression”. For the same molecule, the PD-L1 expression [4, 5] was “increases”, the Mcl-1 protein expression ([4]; by the 24-hour timepoint) was “marked decreases” and the Bcl-2 protein expression [4, 6] was “decreases”. For the same molecule, the Survivin protein expression [4, 6] was “decreases” and the “cleaved PARP (cPARP)” value [4, 7] was “little to no cleaved PARP”.
